Test results: BindingDB's records for doi:10.1016/s0960-894x(00)00248-1 (University of Munich, 2000)

Target: Beta-lactamase TEM (Escherichia coli, UniProt P62593)
Assay: ChEBML_39213
Method: Beta-Lactamase inhibition activity after 15 min of pre-incubation with the enzyme isolated from Escherichia coli 205 TEM

Chain of Beta-lactamase TEM (P62593 whole entry): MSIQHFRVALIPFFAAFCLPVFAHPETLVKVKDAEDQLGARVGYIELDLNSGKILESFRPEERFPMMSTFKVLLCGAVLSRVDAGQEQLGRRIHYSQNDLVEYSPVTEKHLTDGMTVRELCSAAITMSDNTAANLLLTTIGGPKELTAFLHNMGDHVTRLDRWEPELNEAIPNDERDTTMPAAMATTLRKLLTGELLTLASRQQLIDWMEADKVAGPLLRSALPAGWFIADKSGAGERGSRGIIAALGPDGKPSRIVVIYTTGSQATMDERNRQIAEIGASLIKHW

SMILES: COC1=C(C(=O)O)N2C(=O)[C@H]([C@@H](C)O)[C@H]2C1 [Potassium; (5R,6S)-6-((R)-1-hydroxy-ethyl)-3-methoxy-7-oxo-1-aza-bicyclo[3.2.0]hept-2-ene-2-carboxylate]
- IC50: 340 µM
